Reference: US10519111B2, “UV absorbing compounds, compositions comprising same and uses thereof” (CORAL SUNSCREEN PTY LTD, priority 2013, dated 2019)
Values joined by “and” are separate entries in the source; they are usually repeats but may differ in a detail not shown here. Identical values can stand only once.

Assay: UV absorption properties (λmax, molar extinction coefficient ε, efficiency E 1%, 1 cm)
Format: physicochemical
Conditions: for ε (molar extinction coefficient): values in order of the λmax values
[1] = Table 13A, miscellaneous compounds
[2] = Table 6A, N-isobutyl-C3-benzoyl compounds

Compound	UV λmax	ε (molar extinction coefficient)	further results
CC1(C)CCN(C(C)(C)C)C=C1C(=O)c1ccncc1 [Compound 169, (1-(tert-butyl)-4,4-dimethyl-1,4,5,6-tetrahydropyridin-3-yl)(pyridin-4-yl)methanone]	316 nm	23556 M⁻¹ cm⁻¹	
C=C(C)CC(=O)C1=CN(CC(C)C)CCC1(C)C [Compound 27, 1-(1-isobutyl-4,4-dimethyl-1,4,5,6-tetrahydropyridin-3-yl)-3-methylbut-3-en-1-one]	306 nm	14500 M⁻¹ cm⁻¹	
CC(C)CN1C=C(C(=O)/C=C/c2ccccc2)C(C)(C)CC1 [Compound 31, (E)-1-(1-Isobutyl-4,4-dimethyl-1,4,5,6-tetrahydropyridin-3-yl)-3-phenylprop-2-en-1-one]	360 nm	16000 M⁻¹ cm⁻¹	
CC(C)CN1C=C(S(=O)(=O)c2ccccc2)C(C)(C)CC1 [Compound 72, 1-Isobutyl-4,4-dimethyl-5-(phenylsulfonyl)-1,2,3,4-tetrahydropyridine]	285 nm		
CC(C)CN1C=C(C(=O)CCC(=O)O)C(C)(C)CC1 [drawing 171]			λmax [1]: 308 nm
CC(C)(C)c1ccc(C(=O)CC(=O)c2ccc(OCc3ccc(Br)cc3)cc2)cc1 [Compound 9, 1-(4-((4-bromobenzyl)oxy)phenyl)-3-(4-(tert-butyl)phenyl)propane-1,3-dione]	357 nm	35500 M⁻¹ cm⁻¹	
CC(C)CN1C=C(C(=O)c2ccc(C(=O)C3=CN(CC(C)C)CCC3(C)C)cc2)C(C)(C)CC1 [Compound 21, 1,4-phenylenebis ((1-isobutyl-4,4-dimethyl-1,4,5,6-tetrahydropyridin-3-yl)methanone)]	320 nm	20000 M⁻¹ cm⁻¹	
CC(C)CN1C=C(C(=O)/C=C/c2ccc(C(F)(F)F)cc2)C(C)(C)CC1 [Compound 33, (E)-1-(1-Isobutyl-4,4-dimethyl-1,4,5,6-tetrahydropyridin-3-yl)-3-(4-(trifluoromethyl)phenyl)prop-2-en-1-one]	369 nm	17000 M⁻¹ cm⁻¹	
CC1(C)CCN(c2ccc(C(C)(C)C)cc2)C=C1C(=O)C(F)(F)F [Compound 194, 1-(1-(4-(tert-butyl)phenyl)-4,4-dimethyl-1,4,5,6-tetrahydropyridin-3-yl)-2,2,2-trifluoroethanone]	337 nm	42723 M⁻¹ cm⁻¹	
CC1(C)CCN(C(C)(C)C)C=C1C(=O)c1ccc(Br)cc1 [Compound 156, (4-bromophenyl)(1-(tert-butyl)-4,4-dimethyl-1,4,5,6-tetrahydropyridin-3-yl)methanone]	317 nm	27506 M⁻¹ cm⁻¹	
CC(C)CN1C=C(C(=O)c2cc(C(=O)C3=CN(CC(C)C)CCC3(C)C)cc(C(=O)C3=CN(CC(C)C)CCC3(C)C)c2)C(C)(C)CC1 [drawing 89]			E (1%, 1 cm) (Table 6A): 502; ε (Table 6A): 33000 M⁻¹ cm⁻¹; λmax [2]: 316 nm
COc1ccc(N2C=C(C(=O)Cc3ccccc3)C(C)(C)CC2)cc1 [Compound 174, 1-(1-(4-methoxyphenyl)-4,4-dimethyl-1,4,5,6-tetrahydropyridin-3-yl)-2-phenylethanone]	334 nm	33786 M⁻¹ cm⁻¹	
CC(C)CN1C=C(C(=O)C(c2ccccc2)c2ccccc2)C(C)(C)CC1 [Compound 71, 1-(1-isobutyl-4,4-dimethyl-1,4,5,6-tetrahydropyridin-3-yl)-2,2-diphenylethanone]	314 nm	26000 M⁻¹ cm⁻¹	
CCC(=O)C1=CN(CC(C)C)C(=O)CC1(C)C [drawing 169]			λmax [1]: 291 nm
CCCCCCCC(=O)C1=CN(c2ccc(N(C)C)cc2)CCC1(C)C [Compound 175, 1-(1-(4-(dimethylamino)phenyl)-4,4-dimethyl-1,4,5,6-tetrahydropyridin-3-yl)octan-1-one]	338 nm	28040 M⁻¹ cm⁻¹	
CCC(=O)C1=CN(c2ccc(OC)cc2)CCC1(C)C [Compound 52, 1-(1-(4-methoxyphenyl)-4,4-dimethyl-1,4,5,6-tetrahydropyridin-3-yl)propan-1-one]	328 nm	23500 M⁻¹ cm⁻¹	
CC1(C)CCN(c2ccccc2)C=C1C(=O)c1ccc(Br)cc1 [Compound 49, (4-bromophenyl)(1-(phenyl)-4,4-dimethyl-1,4,5,6-tetrahydropyridin-3-yl)methanone]	338 nm	23300 M⁻¹ cm⁻¹	

Compound	UV λmax	ε (molar extinction coefficient)	further results
CC1(C)CCN(c2ccc(C(C)(C)C)cc2)C=C1C(=O)C1c2ccccc2-c2ccccc21 [Compound 205, (1-(4-(tert-butyl)phenyl)-4,4-dimethyl-1,4,5,6-tetrahydropyridin-3-yl)(9H-fluoren-9-yl)methanone]	339 nm	30745 M⁻¹ cm⁻¹	
CN(C(=O)C1=CN(C(C)(C)C)CCC1(C)C)c1ccccc1 [Compound 180, 1-(tert-butyl)-N,4,4-trimethyl-N-phenyl-1,4,5,6-tetrahydropyridine-3-carboxamide]	312 nm	15174 M⁻¹ cm⁻¹	
CCC(=O)C1=CN(c2cccc3ccccc23)CCC1(C)C [Compound 178, 1-(4,4-dimethyl-1-(naphthalen-1-yl)-1,4,5,6-tetrahydropyridin-3-yl)propan-1-one]	321 nm	23247 M⁻¹ cm⁻¹	
CC(C)CN1C=C(C(=O)C(c2ccccc2)c2ccccc2)C(C)(C)CC1 [drawing 172]			E (1%, 1 cm) (Table 13A): 716; ε (Table 13A): 26000 M⁻¹ cm⁻¹; λmax [1]: 314 nm
CC1(C)CCN(C(C)(C)C)C=C1C(=O)/C=C/c1ccccc1 [Compound 155, (E)-1-(1-(tert-butyl)-4,4-dimethyl-1,4,5,6-tetrahydropyridin-3-yl)-3-phenylprop-2-en-1-one]	360 nm	23198 M⁻¹ cm⁻¹	
CC(C)CN1C=C(C(=O)c2ccc(C(=O)c3ccccc3)cc2)C(C)(C)CC1 [drawing 90]			E (1%, 1 cm) (Table 6A): 200; ε (Table 6A): 7500 M⁻¹ cm⁻¹; λmax [2]: 295 nm
CC(C)CN1C=C(C(=O)/C=C/C=Cc2ccccc2)C(C)(C)CC1 [Compound 35, (2E, 4E/Z)-1-(1-isobutyl-4,4-dimethyl-1,4,5,6-tetrahydropyridin-3-yl)-5-phenylpenta-2,4-dien-1-one]	318 nm and 370 nm	14800 M⁻¹ cm⁻¹ and 13200 M⁻¹ cm⁻¹	
COc1ccc(C(=O)C2=CN(CC(C)C)CCC2(C)C)c(OC)c1 [drawing 91]			E (1%, 1 cm) (Table 6A): 286; ε (Table 6A): 9500 M⁻¹ cm⁻¹; λmax [2]: 313 nm
CC(C)CN1C=C(C(=O)CCC=Cc2ccc(COc3ccc(C(=O)CC(=O)c4ccc(C(C)(C)C)cc4)cc3)cc2)C(C)(C)CC1 (racemic) [Compound 10, 1-(4-(tert-butyl)phenyl)-3-(4-((4-(5-(1-isobutyl-4,4-dimethyl-1,4,5,6-tetrahydropyridin-3-yl)-5-oxopent-1-en-1-yl)benzyl)oxy)phenyl)propane-1,3-dione]	314 nm and 357 nm	23250 M⁻¹ cm⁻¹ and 24050 M⁻¹ cm⁻¹	
Cc1ccc(N2C=CC(C)(C)C(C(=O)C(F)(F)F)=C2)cc1 [Compound 199, 1-(4,4-dimethyl-1-(p-tolyl)-1,4-dihydropyridin-3-yl)-2,2,2-trifluoroethanone]	388 nm	14911 M⁻¹ cm⁻¹	
CC(C)CN1C=C(C(=O)c2ccc(C(C)(C)C)cc2)C(C)(C)CC1 [Compound 11, (4-(tert-butyl)phenyl)(1-isobutyl-4,4-dimethyl-1,4,5,6-tetrahydropyridin-3-yl)methanone]	317 nm	19000 M⁻¹ cm⁻¹	shift / increase in λmax (versus base enaminoketone or alkanoyl counterparts): approximately 11 nm
CCC(=O)C1=CN(c2ccc(C(C)(C)C)cc2)CCC1(C)C [Compound 177, 1-(1-(4-(tert-butyl)phenyl)-4,4-dimethyl-1,4,5,6-tetrahydropyridin-3-yl)propan-1-one]	329 nm	31955 M⁻¹ cm⁻¹	
CC(C)CN1C=C(C(=O)c2ccc3c(c2)CCO3)C(C)(C)CC1 [drawing 85]			E (1%, 1 cm) (Table 6A): 831; ε (Table 6A): 22000 M⁻¹ cm⁻¹; λmax [2]: 320 nm
COc1ccc(C(=O)C(CCCCCC(=O)C2=CN(CC(C)C)CCC2(C)C)C(=O)c2ccc(C(C)(C)C)cc2)cc1 (stereo not drawn) [Compound 5]	306 nm		
COc1ccc(N2C=C(C(=O)C(F)(F)F)C(C)(C)CC2)cc1 [Compound 195, 2,2,2-trifluoro-1-(1-(4-methoxyphenyl)-4,4-dimethyl-1,4,5,6-tetrahydropyridin-3-yl)ethanone]	339 nm	24235 M⁻¹ cm⁻¹	
CC1(C)CCN(C(C)(C)C)C=C1C(=S)Nc1ccccc1 [Compound 182, 1-(tert-butyl)-4,4-dimethyl-N-phenyl-1,4,5,6-tetrahydropyridine-3-carbothioamide]	363 nm	20881 M⁻¹ cm⁻¹	
COc1ccc(C(=O)C(CCCCCC(=O)C2=CN(CC(C)C)CCC2(C)C)C(=O)c2ccc(C(C)(C)C)cc2)cc1 (stereo not drawn) [drawing 45]			λmax (Table 1, covalently coupled compounds): 306 nm
